The values below are quoted from earlier work in patent publication US20070060557A1, “Superoxide dismutase mimics for the treatment of optic nerve and retinal damage” (priority 2003, published 2007).

The subject of data set [1] is light-induced retinal damage in albino rats. Particulars: albino rats (Wang et al. 1995).
In data set [2] the test system is rat ocular ischemia-reperfusion model. Particulars: intravitreal injections (Rios et al. 1999).

With `CC1(C)CC(O)CC(C)(C)N1[O]` [4-hydroxy-2,2,6,6-tetramethylpiperidine-1-oxyl], the light-induced retinal damage entry in data set [1] is on record as “inhibited light-induced retinal damage”.
For `CNC(=S)NC` [dimethylthiourea], the functional protection in data set [2] is recorded as 40%.
